The results in this text go back to patent US9383644B2, “Sulfonic acid derivative compounds as photoacid generators in resist applications” (Heraeus Precious Metals North America Daychem LLC, priority 2014, dated 2016).

Holding throughout (type): physicochemical
Data set [1] in a line: Solubility of PAG in organic solvents (solvent added until completely dissolved). The following applies: for Solubility (w/v %) Cyclohexanone / Solubility (w/v %) PGMEA / Solubility (w/v %) GBL: 20° C.; for Solubility (w/v %) PGMEA / Solubility (w/v %) in PGMEA: Propylene glycol monomethyl ether acetate; for Solubility (w/v %) PGMEA: Table 8; for Solubility (w/v %) in PGMEA: Table 7; for Solubility (w/v %) GBL: γ-Butyrolactone; for Solubility in organic solvents (in words): PGMEA, cyclohexanone, GBL. The source says:
Solubility is an important factor in the evaluation of a PAG. High solubility not only makes a PAG purified readily but also enables a PAG to be used for a wide range of concentrations in photoresists and in varied solvent systems. To test the solubility of a PAG, a solvent is slowly added until the PAG is completely dissolved and no turbidity is observed in the clear solution. Table 8 lists the solubility (w/v %) of some representative N-hydroxynaphthalimide sulfonate derivatives versus NIT in various organic solvents at 20° C. […] All compounds except for S-6 and O-12 show much higher solubility than the commercial benchmark (NIT).

Data set [2] in a line: Photoreactivity: photolysis of PAGs in acetonitrile at 365 nm, photoreaction constant from UV-Vis absorbance. The conditions noted are these: for Relative Photoreactivity (normalized photoreaction constant) at 365 nm: acetonitrile, air, room temperature, 3×10^−5 M, NIT normalized to one; for Solubility x relative Photoreactivity: product of solubility in PGMEA and relative photoreactivity at 365 nm. An excerpt: A photoresist composition typically comprises PAG, polymers, additives and solvents. The performance of a photoresist composition is mainly dependent on the properties of the PAG and polymer components. To formulate a high-performance photoresist composition, more photosensitive PAGs are typically selected. The photosensitivity of a PAG is typically directly related to the strength of the generated acid and the photoreactivity of the PAG. For a series of PAGs producing the same latent acid, their photosensitivity is related only to their photoreactivity. Thus evaluating the photosensitivity of a PAG can be achieved by studying its photoreactivity. The higher photoreactivity, the higher photosensitivity. The photoreactivity can be investigated by photolysis of a PAG in its dilute solution under low exposure intensity (to avoid side reactions which don't generate the desired acid). The change in the concentration of a PAG upon irradiation can be determined by measuring the absorbance of the PAG at the maximum absorption wavelength.
Photolysis of PAGs was carried out in acetonitrile in air at room temperature. The sodium salt of tetrabromophenol blue (TBPBNa), an acid indicator dye, which has a maximum absorption at 618 nm, was purchased from Aldrich (indicator grade) and used as received. Irradiation of the solution of the PAGs (3×10^−5 M) was performed using a Cole-Parmer UV 15 W bench lamp (EW-97605-50) at 365 nm. Light intensity was measured using an UV Power Puck II radiometer from EIT Inc. UV-Vis spectra were run on a Thermo Scientific Evolution 201 UV-visible spectrophotometer.
Photolysis of NIT, comparative compound A and B, S-3, and S-11 was examined in acetonitrile. The absorption band at 400 nm gradually decreases upon irradiation, indicating the progress of photoreaction with the increase of exposure dose of energy. Assuming the photoreaction is first-order, plot of natural log of changes in absorbance with exposure dose of energy gives the photoreaction constant of S-3 (i.e., the slope of the linear trendline) (FIG. 3). The photoreaction constants of other compounds were similarly determined under the same irradiation condition. Comparing the constants of A, B, S-3, and S-11 with that of NIT normalized to one gives the relative photoreactivity (Table 7). […] The formation of acid upon irradiation was confirmed by observing the spectral changes of the acid indicator, TBPBNa at 618 nm.

Data set [3] can be described thus: UV absorbance of PAG compounds (FIG. 1). The following applies: for Absorbance at i-, h-, and g-lines of a mercury lamp (in words): versus NIT. The source says:
FIG. 1 is a graph illustrating the UV absorbance of certain PAG compounds of the invention versus the UV absorbance of certain prior art PAG compounds;
Referring to FIG. 1, the PAG compounds of the invention have excellent solubility in organic solvents and strong absorption at i-, h-, and g-lines of a mercury lamp.

As for `O=C1c2cccc3cccc(c23)C(=O)N1OS(=O)(=O)C(F)(F)F` [NIT, N-Hydroxynaphthalimide triflate, reference compound], in data set [1], the “Solubility (w/v %) Cyclohexanone” value is recorded as 5.9% w/v %, the “Solubility (w/v %) PGMEA” value is reported as 1.7% w/v %, the “Solubility (w/v %) in PGMEA” value is recorded as 1.7% w/v % and the “Solubility (w/v %) GBL” value was determined as 2.2% w/v %. Further, in data set [2], the “Relative Photoreactivity (normalized photoreaction constant) at 365 nm” value is 1.0 and the “Solubility x relative Photoreactivity” value turned out to be 1.7%.

In the case of `CC(C)Sc1ccc2c3c(cccc13)C(=O)N(OS(=O)(=O)C(F)(F)F)C2=O` [Compound S-3], in data set [1], the “Solubility (w/v %) Cyclohexanone” value is 16.6% w/v %, the “Solubility in organic solvents (in words)” value (“Solubility … (in words)” for short) is recorded as “much higher solubility than comparative compound A”, the “Solubility (w/v %) PGMEA” value came to 7.2% w/v % and the “Solubility (w/v %) in PGMEA” value amounted to 7.2% w/v %. For the same compound, the “Solubility (w/v %) GBL” value in data set [1] amounted to 8.1% w/v %. Further, in data set [2], the “Relative Photoreactivity (normalized photoreaction constant) at 365 nm” value is 13.3 and the “Solubility x relative Photoreactivity” value is listed as 95.8%. Moreover, in data set [3], the Strong absorption band came to 400 nm; the “Absorbance at i-, h-, and g-lines of a mercury lamp (in words)” value (“Absorbance at i-, h-, and g-lines” for short) is reported as “much larger than that of NIT”.

Regarding `COC(C)CCOC(=O)CCSc1ccc2c3c(cccc13)C(=O)N(OS(=O)(=O)C(F)(F)F)C2=O` (stereo not shown) [Compound S-11], in data set [1], the “Solubility (w/v %) Cyclohexanone” value is on record as 86.4% w/v %, the “Solubility … (in words)” value was “extremely high solubility”, the “Solubility (w/v %) PGMEA” value stood at 53.9% w/v % and the “Solubility (w/v %) in PGMEA” value is listed as 53.9% w/v %. Moreover, in data set [1], the “Solubility (w/v %) GBL” value is listed as 105.7% w/v %. In data set [2], the “Relative Photoreactivity (normalized photoreaction constant) at 365 nm” value is reported as 14.2 and the “Solubility x relative Photoreactivity” value is reported as 765.4%.

Take `COC(C)CCOC(=O)CCSc1ccc2c3c(cccc13)C(=O)N(OS(=O)(=O)c1ccc(C)cc1)C2=O` (stereo not shown) [Compound S-43]: in data set [1], the “Solubility (w/v %) Cyclohexanone” value is 37.5% w/v %, the “Solubility … (in words)” value is on record as “extremely high solubility”, the “Solubility (w/v %) PGMEA” value is 11.7% w/v % and the “Solubility (w/v %) GBL” value was 67.8% w/v %.

Regarding `CC(C)(C)c1ccc(Sc2ccc3c4c(cccc24)C(=O)N(OS(=O)(=O)C(F)(F)F)C3=O)cc1` [Compound S-6], in data set [1], the “Solubility (w/v %) Cyclohexanone” value amounted to 5.3% w/v %, the “Solubility (w/v %) PGMEA” value is given as 1.9% w/v % and the “Solubility (w/v %) GBL” value is given as 1.2% w/v %. For the same compound, in data set [3], the Strong absorption band was found to be 400 nm; the “Absorbance at i-, h-, and g-lines” value is on record as “much larger than that of NIT”.

With `O=C1c2cccc3c(Oc4ccccc4)ccc(c23)C(=O)N1OS(=O)(=O)C(F)(F)F` [Compound O-12], in data set [1], the “Solubility (w/v %) Cyclohexanone” value amounted to 9.0% w/v %, the “Solubility (w/v %) PGMEA” value was determined as 2.0% w/v % and the “Solubility (w/v %) GBL” value was 1.6% w/v %. In addition, in data set [3], the Strong absorption band worked out at 364 nm; the “Absorbance at i-, h-, and g-lines” value was “much larger than that of NIT”.

Turning to `CCCCSc1ccc2c3c(cccc13)C(=O)N(OS(=O)(=O)C(F)(F)F)C2=O` [Comparative A, reference compound], in data set [1], the “Solubility (w/v %) Cyclohexanone” value is reported as 4.1% w/v %, the “Solubility (w/v %) PGMEA” value turned out to be 1.1% w/v %, the “Solubility (w/v %) in PGMEA” value was determined as 1.1% w/v % and the “Solubility (w/v %) GBL” value amounted to 0.9% w/v %. Besides, in data set [2], the “Relative Photoreactivity (normalized photoreaction constant) at 365 nm” value was determined as 13.5 and the “Solubility x relative Photoreactivity” value turned out to be 14.9%.

On to `O=C1c2cccc3c(C#Cc4ccccc4)ccc(c23)C(=O)N1OS(=O)(=O)C(F)(F)F` [Comparative B, reference compound], for which, in data set [1], the “Solubility (w/v %) Cyclohexanone” value came to 3.5% w/v %, the “Solubility … (in words)” value is reported as “much lower”, the “Solubility (w/v %) PGMEA” value is recorded as 1.0% w/v % and the “Solubility (w/v %) in PGMEA” value is given as 1.0% w/v %. In addition, the “Solubility (w/v %) GBL” value in data set [1] came to 1.1% w/v %. In data set [2], the “Relative Photoreactivity (normalized photoreaction constant) at 365 nm” value is on record as 2.5 and the “Solubility x relative Photoreactivity” value was determined as 2.5%.
